Reference: PubChem BioAssay AID1902 (Broad Institute, 2009)
Calls of active or inactive are those of the source.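 The calls were made as follows: active = EC50 no more than a set limit of log units above the highest dose; inactive = the rest.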

Target: S. pyogenes SKKanGAS, kanamycin survival, BacTiterGlo, 6 h
Assay: SKKanGAS survival reduction under kanamycin, dose response, streptokinase promoter inhibitor project, SKKanGAS strain, luminescence, dose confirmation (AID 1902);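 also: lower survival reflects blocked streptokinase promoter driving kanamycin resistance gene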

SMILES | EC50
O=C1c2ccc3c4c(ccc(c24)C(=O)N1c1cccc(O)c1)C(=O)N(c1cccc(O)c1)C3=O | 1270 nM
N=C1/C(=C/c2cccs2)C(=O)N=C2SN=C(SCc3ccccc3)N12 | 1830 nM
COc1cc(OC)cc(C(=O)Nc2nc(-c3ccccc3)c(-c3ccccc3)o2)c1 | 629 nM
FC(F)(F)c1cccc(NC(=S)NNC(=S)Nc2ccc(Cl)cc2)c1 | 4810 nM
CSc1ccc(/C=C2\CCn3c2nc2cc(C(=O)O)ccc2c3=O)cc1 | 6150 nM
Cc1[nH]n(-c2ccc(Br)cc2)c(=O)c1/C=N/NC(=O)c1ccccc1 | 428 nM
O=c1[nH]c(=O)n([C@H]2C[C@H](O)[C@@H](CO)O2)cc1F | 689 nM
CC(C)=CCCC1(C)C=Cc2c(ccc3c2[nH]c2cc(O)c(C)cc23)O1 (stereo not given) | 3040 nM
COc1ccc(Cn2c(SCc3cc(C)ccc3C)nc3cc(OC)c(OC)cc3c2=N)cc1 | 2730 nM
Oc1c(CN2CCN(c3ccccc3)CC2)cc(Br)c2cccnc12 | 1670 nM
COc1ccccc1-n1c(SCC(=O)Nc2ccc(C)cc2)nc(O)cc1=O | 13600 nM
N#C/C(=N\Nc1ccc(S(=O)(=O)N2CCOCC2)cc1)C(N)=S | > 15000 nM (inactive)
CC(=O)OCC1=C(C(=O)O)N2C(=O)C(NC(=O)C(C)Cn3cc(Cl)cn3)C2SC1 (stereo not given) | 1960 nM
Cc1cc(N/N=C/c2cccc(Br)c2)nc2ccccc12 | 5250 nM
O=C(N/N=C/c1cc(O)ccc1Br)c1cccnc1 | 2880 nM
COc1ccc2c(c1)c(CC(=O)Nc1cccc(S(N)(=O)=O)c1)c(C)n2C(=O)c1ccc(Cl)cc1 | 3280 nM
Cn1cccc1CC(=O)NNC(=S)NC(=O)c1ccccc1Br | 1640 nM
CCCCSc1ccc2nc(-c3ccc(C#N)cc3)cn2c1 | 7720 nM
COc1ccc(Cl)cc1C(=O)NNC(=S)NC(=O)c1cc(-c2ccccc2)nc2ccccc12 | 81 nM
CC(C)(C)c1ccc2c(c1)OC(C(=O)N/N=C/c1ccc([N+](=O)[O-])o1)CO2 (stereo not given) | 3920 nM
COc1ccc(/C=N\NC(=O)c2cc(O)c(O)c(O)c2)cc1COc1ccc(C(=O)OCC(C)C)cc1 | 7280 nM
N#CCC(=O)Nc1ccc(C(=O)OC(C(=O)Nc2cc(C(F)(F)F)ccc2Cl)c2ccccc2)cc1 (stereo not given) | 3640 nM
CCN1/C(=C/C=C/c2oc3ccc(-c4ccccc4)cc3[n+]2CC)Oc2ccc(-c3ccccc3)cc21 | 2070 nM
Cc1ncc(CO)c(/C=N/NC(=O)c2cc(Br)ccc2O)c1O | 1520 nM
COCCn1c(SCc2nc3sc(C(=O)OC)c(C)c3c(=O)[nH]2)nc2ccccc21 | 3540 nM
Cc1coc2c1C(=O)C(=O)c1c-2ccc2c(C)cccc12 | 2750 nM
COc1ccc(O)c(/C=N/Nc2nc(Nc3ccccc3)nc(-n3nc(C)cc3C)n2)c1 | 868 nM

SMILES | EC50
C=CCn1c(N2C(=O)CC(Cc3ccccc3)C2=O)nc2ccccc21 (stereo not given) | 4500 nM
Cc1cc(C(C)(C)C)cc(C)c1COC(=O)c1cccnc1 | 3250 nM
O=c1[nH]c(CSc2ncnc3sccc23)nc2ccccc12 | 2250 nM
O=[N+]([O-])c1c(NCCO)cc(Sc2nc3ccccc3s2)c2nonc12 | 2950 nM
Cn1c(=O)c2c(nc(SCc3ccccc3)n2Cc2ccc(Cl)cc2)n(C)c1=O | 2300 nM
COc1ccc(CNCC(O)(c2ccc(Cl)cc2)c2ccc(Cl)cc2)cc1 | 3510 nM
COc1ccc(-c2oc(NC(=O)CCl)c(C#N)c2-c2ccc(OC)cc2)cc1 | 3110 nM
N#Cc1c(-c2ccccc2)c(-c2ccccc2)nn(CC(=O)NNC(=O)Nc2ccc(Cl)c(Cl)c2)c1=O | 5300 nM
Cc1cccc(NC(=O)c2nc[nH]c2C(=O)N[C@@H](CCCCNC(=O)OC(C)(C)C)C(=O)OC(C)(C)C)c1 | 2830 nM
CCOC(=O)c1c(NC(=O)COC(=O)c2ccc(C)s2)sc2c1CC(C)(C)NC2(C)C | 3700 nM
C=CCn1c(COc2ccccc2)nnc1SC(C)C(=O)N/N=C/c1cc(Cl)ccc1O (stereo not given) | 1700 nM
COc1cccc(NCc2cc(=O)oc3cc(C)c(O)cc23)c1 | 1850 nM
Cc1cccc(Oc2nc(-c3ccncc3)nc3ccccc23)c1 | 8040 nM
CCOC(=O)c1cnc(-n2nc(C)cc2C)nc1NNc1cc(C)nc(-c2ccccc2)n1 | 237 nM
O=C(Nc1cccc(Cl)c1)Nc1cc(S(=O)(=O)N2CCCCC2)ccc1Cl | 7750 nM
Cc1ccc(Cl)cc1NC1=C/C(=N\S(=O)(=O)c2cccs2)c2ccccc2C1=O | 908 nM
CCCOc1ccc(C(=O)NC(=S)N2CCN(c3cc4c(cc3F)c(=O)c(C(=O)O)cn4CC)CC2)cc1 | 2340 nM
Oc1cccc2ccc(/C=C/c3ccc(Br)s3)nc12 | 1380 nM
COc1ccc(CNC(=O)Cc2csc(NC(=O)Nc3ccccc3OC)n2)cc1 | 15000 nM
Oc1ccc(Br)cc1/C=N/Nc1nc(N2CCCCC2)nc(N2CCOCC2)n1 | 3810 nM
Cc1ccc(OCC(=O)NNC(=S)NC(=O)c2ccc(Br)o2)c(C)c1 | < 60 nM
O=C(NCC1(N2CCCCC2)CCCCC1)c1cccc(NS(=O)(=O)c2ccccc2)c1 | > 15000 nM (inactive)
Fc1ccc(CSc2nc3ccccc3[nH]2)c2ccccc12 | 6110 nM
Cc1nn(-c2ccccc2)c(C)c1/C=N/NC(=O)c1cc(-c2ccc(Cl)s2)[nH]n1 | 5800 nM
COc1ccc(C(=O)NCC(=O)OCC(=O)N2N=C(c3ccc(Cl)cc3)CC2c2ccco2)cc1OC (stereo not given) | 15600 nM
COC(C(=O)Nc1ccnn1C1CCN(Cc2nccs2)CC1)c1ccccc1 (stereo not given) | > 15000 nM (inactive)
CCCCCNC(=O)c1ccc2c(=O)[nH]c3c(C(=O)NCC4CCCO4)sc(=S)n3c2c1 (stereo not given) | 2170 nM

SMILES | EC50
Oc1c(C(c2ccc(Cl)cc2)N2CCCC2)cc(Cl)c2cccnc12 (stereo not given) | 1530 nM
O=C(N/N=C/c1cc(Br)ccc1O)C(=O)Nc1ccccc1OC(F)(F)C(F)F | 1440 nM
Oc1c(CN2CCc3ccccc3C2)cc(Cl)c2cccnc12 | 2150 nM
O=c1cc(CSc2ccc(Cl)cc2)nc(-c2ccccn2)[nH]1 | 371 nM
COc1ccc(NC(=O)C(=O)NNC(=O)C(C)Oc2ccc(Cl)cc2Cl)cc1 (stereo not given) | 3310 nM
Cc1cc(C)c2c(C(C)(C)C)nn(-c3ccccc3)c2n1 | 2970 nM
CCCn1c(C2CCCN2c2nc(-c3cccc(Br)c3)cs2)nc2cc(Cl)c(Cl)cc21 (stereo not given) | 3680 nM
CC(C)c1ccc(-n2c(O)c(/C=N/NC(=O)c3ccccc3O)c(=O)[nH]c2=S)cc1 | 7000 nM
O=C(O)CCCN1C(=O)/C(=C/c2cn(-c3ccccc3)nc2-c2cccs2)SC1=S | 2720 nM
CCc1nnc(NS(=O)(=O)c2ccc(NCc3cc(Cl)cc(Cl)c3O)cc2)s1 | 14200 nM
COc1cnc(-c2ccccn2)nc1Oc1ccc(Cl)c2ccccc12 | 142 nM
O=C(c1ccc(F)cc1)c1cc2ccc(O)cc2oc1=O | 7310 nM
COC(=O)c1ccc(N2CCC(c3cc(-c4ccc(OC)cc4)n[nH]3)CC2)c([N+](=O)[O-])c1 | 2140 nM
CN1CCN(C(c2ccc(C(F)(F)F)cc2)c2cc(Cl)c3cccnc3c2O)CC1 (stereo not given) | 682 nM
CCCCCn1c(=O)c(C(=O)Nc2cnccn2)c(O)c2ccccc21 | 3180 nM
Cc1csc(Nc2ccc(Cl)cc2)[n+]1-c1ccc(Cl)cc1 | 11100 nM
CC1C(=O)C(C)C(c2cc(Cl)ccc2O)NC1c1cc(Cl)ccc1O (stereo not given) | 2320 nM
CCCC(O)(c1ccc(Br)cc1)C(CN1CCOCC1)c1ccc(Cl)cc1 (stereo not given) | 10100 nM
CN1C(=O)/C(=C/c2ccccc2F)Sc2ccc(C(=O)NCC3CCCO3)cc21 (stereo not given) | 1530 nM
O=C(Oc1cccc(/C=N/Nc2nc(Nc3ccccc3)nc(N3CCOCC3)n2)c1)c1ccco1 | 2030 nM
Cc1ccccc1CN(C)CC(=O)Nc1ccccc1-c1ccccc1 | 3300 nM
Cc1cccc(OCC(=O)NCC(=O)N/N=C/c2cc(Br)cc(Br)c2O)c1 | 723 nM
C=CCn1c(SCC(=O)/C(C#N)=C(\C)N)nc2sc(C)c(C)c2c1=O | 5250 nM
Cc1onc(-c2ccccc2)c1C(=O)NC(=S)NNC(=O)c1ccc(O)cc1O | 2670 nM
Cc1cnn(-c2nc(-c3ccccc3)cc(-c3ccccc3)n2)c1 | 4510 nM
O=C(O)c1ccc(N/N=C/c2ccc(-c3ccc(Cl)cc3Cl)o2)cc1 | 1940 nM
Oc1c(CN2CCN(c3ccc(F)cc3)CC2)cc(Cl)c2cccnc12 | 1010 nM

SMILES | EC50
CC(C)OC(=O)c1c(NS(=O)(=O)c2ccccc2)sc2c1CCCC2 | 3880 nM
CCOC(=O)c1c(NC(=S)N2CCN(C)CC2)sc(C)c1-c1ccccc1 | 6510 nM
CC(=O)Nc1ccc(C2C(=O)c3ccccc3C2=O)cc1 | > 15000 nM (inactive)
FC(F)(F)c1cc(Nc2ccccc2)nc(-c2ccccn2)n1 | 15200 nM
c1ccc(-c2nnc(-c3ccccn3)nc2NC2CCCCC2)cc1 | 2950 nM
O=C(NNC(=S)NC(=O)c1ccccc1)c1cccc([N+](=O)[O-])c1 | 5820 nM
Cc1onc(-c2ccccc2)c1C(=O)NC(=S)NNC(=O)c1ccco1 | 943 nM
CC(C)[C@@H](C(=O)NC1CCCC1)N1C(=O)N2CCc3c([nH]c4ccccc34)[C@@]2(C)C1=O | > 15000 nM (inactive)
CSc1nsc2nc(=O)c(/C=C3\C=Nc4ccccc43)c(N)n12 | 3570 nM
CCCCCCCCOC(=O)c1c(CSC(=N)N)n(C)c2cc(Br)c(OC(C)=O)cc12 | 2830 nM
COc1ccc(C2CC(c3cccs3)=NN2C(=O)CSc2nc3c(cnn3-c3ccccc3)c(=O)[nH]2)cc1 (stereo not given) | 2110 nM
COc1ccc(C(=O)NC(=S)NNC(=O)c2ccco2)cc1 | 4480 nM
Cc1cccc(C)c1OCC(=O)Nc1ccccc1N1CCCCC1 | 2780 nM
CC(C)(C)c1ccc(C(=O)Nc2ccc(F)cc2)s1 | > 15000 nM (inactive)
S=C(NCc1ccco1)N1CCN(c2nc(-c3ccc(Cl)cc3)cs2)CC1 | 9920 nM
CCCOc1ccc(C(=O)NNC(=S)NC(=O)c2cc(-c3ccc(Cl)cc3)nc3ccccc23)cc1 | < 60 nM
O=C(O)CCCN1C(=O)/C(=C\c2ccc(-c3nc4ccccc4s3)o2)SC1=S | 4890 nM
O=C1/C(=C/c2cccnc2)SC(=NCc2ccccc2)N1Cc1ccccc1 | 8090 nM
CN1C(=O)/C(=C\c2ccccc2F)Sc2ccc(C(=O)NC3CCN(Cc4ccccc4)CC3)cc21 | 6220 nM
COc1ccc(-c2nn(-c3ccccc3)cc2/C=C/C(=O)N2CCN(c3ccccn3)CC2)cc1 | 4690 nM
O=C(NC(c1ccc(Cl)cc1)c1cc(Cl)c2cccnc2c1O)c1cccnc1 (stereo not given) | 278 nM
COc1ccc2cc3c(N)nn(C(=O)C4CCC(C(C)(C)C)CC4)c3nc2c1 (stereo not given) | 1950 nM
Cc1ccc(C(=O)OC2OC(=O)C(Cl)=C2N2CCOCC2)cc1 (stereo not given) | 884 nM
Cc1cccc(N2CCN(C(=O)c3cc4n(n3)C(C(F)(F)F)CC(c3ccco3)N4)CC2)c1C (stereo not given) | 4200 nM
